In EPA's ToxValDB 9.5 (doi:10.2903/j.efsa.2009.1354):
In brackets after ≈: the same amount, converted by molar mass. Several values for one entry are separate records, joined by “and”; a condition that tells them apart may be missing. Identical values can stand only once.

Key:
[1] = test system: Rattus norvegicus
[2] = test system: Colinus virginianus; conditions: for LC50 / LD50: acute, oral, mortality; for LC50: diet
[3] = test system: Anas platyrhynchos; conditions: for LD50: acute, unspecified; for LD50 / LC50: oral, mortality; for LC50: short-term, feed
[4] = test system: Oryctolagus sp.; conditions: acute; oral; mortality
[5] = test system: Hypoaspis aculeifer; conditions: chronic/long-term; duration: 16 days; reproduction
[6] = test system: Folsomia candida; conditions: chronic/long-term; duration: 28 days
[7] = test system: Aphidius rhopalosiphi; conditions: acute; duration: 2 days; mortality
[8] = test system: Coturnix japonica; conditions: acute, oral, mortality
[9] = test system: Daphnia magna; conditions: chronic/long-term; duration: 21 days; reproduction
[10] = test system: Cucumis sativus; conditions: acute; duration: 21 days; biomass
[11] = test system: Oncorhynchus mykiss; conditions: chronic/long-term; duration: 14 days; growth
[12] = test system: Apis mellifera; conditions: acute; duration: 48 hours; dermal; mortality
[13] = test system: Phasianus sp.; conditions: oral, mortality; for LD50: acute, unspecified
[14] = test system: Lepomis macrochirus; conditions: acute; duration: 96 hours; mortality
[15] = test system: Anas platyrhynchos; test: LC10; higher = less toxic; conditions: short-term; duration: 14 days; oral; feed; mortality

In the case of `CCCCN(CCCC)SN(C)C(=O)Oc1cccc2c1OC(C)(C)C2` [Carbosulfan], the NOAEL ([1]; acute, clinical chemistry) is reported as 0.5 mg/kg-day, the LD50 ([1]; acute, oral, mortality) is reported as < 5.6 mg/kg-day and the NOAEL ([1]; chronic) is reported as 0.1 mg/kg-day. The NOAEL ([1]; reproduction developmental, reproduction) was 1.2 mg/kg-day, the LC50 ([2]; duration: 5 days) was 114 mg/kg-day and the LC50 ([2]; duration: 7 days) was 20.8 mg/kg-day. It also gave an LC50 ([2]; duration: 14 days) of 15.8 mg/kg-day, an LD50 ([2]; M/F) of 8 mg/kg-day and an LC50 [2] of 239 mg/kg-day. The LD50 [2] was 82 mg/kg-day, the NOEL ([2]; reproduction developmental) was 10.8 mg/kg-day and the LD50 ([3]; F) was 0.86 mg/kg-day. The LD50 ([3]; M) was 0.71 mg/kg-day, the NOEL ([3]; reproductive) was 2.5 mg/kg-day and the LC50 ([3]; duration: 5 days) was 10 mg/kg-day and 17 mg/kg-day. For the same compound, the LC50 ([3]; duration: 14 days) was 1.6 mg/kg-day, the LC50 [3] was 3.99 mg/kg-day and the LD50 [4] was 42.7 mg/kg-day. It also gave an NOEC [5] of 20 mg/kg, an NOEC [6] of 0.3 mg/kg and an LEL [7] of 120 g/ha. The LD50 ([8]; F) was 3.5 mg/kg-day, the LD50 ([8]; M) was 4.9 mg/kg-day and the NOEC [9] was 0.0032 mg/L. The LEL [10] was 1500 g/ha, the NOEC [11] was 0.004 mg/L and the LD50 [12] was 0.18 µg/piece. For the same compound, the LD50 ([13]; F) was 6.2 mg/kg-day, the LD50 ([13]; M) was 4 mg/kg-day and the LD50 [13] was 20 mg/kg-day. It also gave an LC50 ([13]; short-term, feed) of 567 mg/kg-day, an LC50 [14] of 0.015 µg/mL (≈ 0.0394 µM) and an LC10 [15] of 0.64 mg/kg-day.
